Source: patent publication US7553484B2, “Modulating neuronal outgrowth via the major histocompatibility complex class I (MHC I) molecule” (The Regents of the University of California, priority 2001, dated 2009)
“Also recorded” adds a separate entry of the source.

System: retinal explant neurite outgrowth
Experiment: Retina (alone) explant culture with and without recombinant MHC I (rsMHC I)
Assay type: cell-based, mouse
Conditions: for neurite outgrowth with rsMHC I plus compound compared with control levels / neurite outgrowth in cultures containing rsMHC I, compound added vs rsMHC I alone: ACPD 50 uM, cAMP 20 uM, Forskolin 5 uM; for overall protection against the effects of rsMHC I (summary): FIG. 5; for neurite outgrowth in cultures containing rsMHC I, compound added vs rsMHC I alone: 3 days
Description: To rule out the possibility that the MHC I-tg thalami inhibit retinal growth indirectly due to an alteration in the milieu of neuroactive molecules they secrete, wt retinas were cultured alone, in the presence, or absence of recombinantly produced MHC I D^b (rMHC I). The rMHC I was obtained by transfecting COS cells with a recombinant plasmid that directs the expression of a MHC I D^b lacking a membrane anchor and harvesting the conditioned media.
A truncated MHC I ^Db mini-gene (containing exons 1-4 plus a stop codon) was subcloned into pIRES (Invitrogen). Due to the lack of a transmembrane spanning region (exons 5 and 6), this MHC I molecule is secreted. COS cells were transfected (using lipofectamine, GIBCO) with the parental plasmid, or the plasmid encoding soluble MHC I D^b. […] Forty eight hours later, the conditioned media was harvested and added to fresh explant co-cultures of wt retina and thalamus at final dilutions of 1:1, 1:4, 1:20 or 1:100. To some cultures, monoclonal antibodies to MHCI D^b or D^k were added to both the matrigel (before its solidification) and the media (0.005 mg/ml). Both the conditioned media and the antibodies were coded. The co-cultures were incubated for 4-5 days, fixed, and scored in a blinded fashion as described above. Duplicates of each group were tested simultaneously in 4 separate experiments.
E14 day embryos from C57Bl6 and Balb/c mice were dissected in Leibovitz's L-15 media (Gibco BRL). The retinas were isolated and placed in a matrigel matrix (Growth Factor Reduced Basement membrane matrix, Collaborative Biomedical Products) in a chamber slide (Fisher LabTech). The slides were then incubated at 37° C. for 60 minutes to solidify the gel. Neurobasal medium (Gibco BRL), containing L-glutamine, antibiotics and 1× B27 supplement) was added to each chamber (0.25 ml). Inhibition of axon outgrowth by rsMHC I was tested by addition of conditioned culture media from COS cells containing rsMHC I or control media to the normal culture media. Compounds that modulate cAMP levels were added at the following concentrations to the matrigel and the culture media: Forskolin (5 uM), a drug that activates adenyl cyclase and endogenous production of cAMP; and Rp-cAMPS (20 uM), the R diasteriomer of adenosine 3′,5′-(cyclic) phosphorothioate, a non-hydrolyzable antagonist of cAMP. The cultures were incubated further at 37° C., 5% CO2. After incubating for 3 days, the experiment was terminated by replacing the buffer with 4% PFA and storing the slides at 4° C. Statistical Analysis was done by Student's test.

| SMILES | neurite outgrowth with rsMHC I plus compound compared with control levels | overall protection against the effects of rsMHC I (summary) | neurite outgrowth in cultures containing rsMHC I, compound added vs rsMHC I alone (Rp-cAMPS 20 uM) | retinal explant outgrowth in control cultures (media alone, no rsMHC I) (Rp-cAMPS 20 uM) | neurite outgrowth in cultures containing rsMHC I, compound added vs rsMHC I alone (Rp-cAMPS 20 uM, listed as Rp-cAMPs) |
| --- | --- | --- | --- | --- | --- |
| N[C@@]1(C(=O)O)CC[C@@H](C(=O)O)C1 [ACPD, 1-amino-(1S,3R)-cyclo pentanedicarboxylic acid] | did not return to control levels | partially protective | significantly enhanced neurite outgrowth; also recorded: partially neutralize the effects of rsMHC I |  |  |
| Nc1ncnc2c1ncn2[C@@H]1O[C@@H]2CO[P@@](O)(=S)O[C@H]2[C@H]1O [Rp-cAMPS, R diasteriomer of adenosine 3′,5′-(cyclic) phosphorothioate] |  | very efficient at blocking the effects of rsMHC I | completely prevented the inhibitory effects of rsMHC I; also recorded: can reverse this inhibitory effect | no effect | completely prevented the inhibitory effects of rMHC I; also recorded: prevented the inhibitory action of rMHC I |
| Nc1ncnc2c1ncn2[C@@H]1O[C@@H]2COP(=O)(O)O[C@H]2[C@H]1O [cAMP, cyclic adenosine monophosphate] | not statistically different from control levels | partially protective | significantly enhanced neurite outgrowth; also recorded: partially neutralize the inhibitory action of rMHC I |  |  |
